According to US12410161B2, “Tetrahydrobenzo-quinoline sulfonamides derivative compounds” (UCB Biopharma SRL, priority 2019, dated 2025):

Each molecule was assayed against T1, IgE-Tb binding to soluble IgE receptor FcεRIα-Y131A-AF488 (Homo sapiens, UniProt P0DOX4, N265Q/N371Q) (assay: In vitro FRET assay of IgE-Tb binding to FcεRIα receptor (protocol for most examples, 2 hours incubation)). Settings: 5 nM IgE-Tb, 25 nM FcεRIα-Y131A-AF488; incubated 2 hours at room temperature; read-out: FRET IC50 range.
T1 construct: 86 nmoles of IgE-Fc(N265Q, N371Q) (Young et al., 1995)
T1 sequence (P0DOX4 224-547 N265Q/N371Q limits assumed): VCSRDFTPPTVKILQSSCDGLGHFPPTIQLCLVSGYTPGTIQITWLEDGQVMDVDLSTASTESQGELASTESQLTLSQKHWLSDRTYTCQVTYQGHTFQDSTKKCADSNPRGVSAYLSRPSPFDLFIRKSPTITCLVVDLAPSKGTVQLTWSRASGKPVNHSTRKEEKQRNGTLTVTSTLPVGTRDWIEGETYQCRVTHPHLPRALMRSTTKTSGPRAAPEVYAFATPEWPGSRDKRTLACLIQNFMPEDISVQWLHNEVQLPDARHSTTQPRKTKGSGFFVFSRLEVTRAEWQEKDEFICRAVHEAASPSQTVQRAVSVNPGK
Description: In vitro Biochemical Assay: Protocol for preparation of IgE-Tb reagent 86 nmoles of […]) (Young et al., 1995) at 172 μM in 100 mM NaHCO3, pH 9.5 was added to 1 mg of LanthaScreenTM Amine Reactive Tb Chelate (ThermoFisher catalogue number PV3583) and incubated for 16 hours at 20° C. The material was then buffer exchanged into Phosphate Buffered Saline (being, 137 mM NaCl, 2.7 mM KCl, 10 mM Na2HPO4, 1.8 mM K2HPO4, pH 7.4) and the material quantified and the degree of Tb conjugation determined by measuring the absorption at 280 nm and 343 nm. The integrity of the conjugated material was determined by analytical size exclusion chromatography on a 5200 HR 10×300 column (GE Healthcare). Typical conjugation ratios were 4:1 Tb:IgE-Fc. • Young R J., Owens, […]., Chan C M W., Shi J., Hide […]., Henry A J., Sutton B J., and Gould H J (1995) Protein Engineering 8:193-199 Protocol for preparation of […] reagent […] Oxidation was quenched with the addition of 40 μl of ethanediol and incubation for 60 minutes at 22° C. The protein was buffer exchanged in to conjugation buffer (50 mM NaHCO3, 150 mM NaCl, pH 9.5) and concentrated to 750 μM. 175 nmoles of protein was added to 1 mg of Alexa FluorTM 488 hydrazide (Invitrogen) and incubated for 16 hours at 22° C. […] The protein was buffer exchanged into Phosphate Buffered Saline (being, 137 mM NaCl, 2.7 mM KCl, 10 mM Na2HPO4, 1.8 mM K2HPO4, pH 7.4) and the material quantified and the degree of Alexa FluorTM 488 conjugation determined by measuring the absorption at 280 nm and 495 nm. The integrity of the conjugated material was determined by analytical size exclusion chromatography on a 5200 HR 10×300 column (GE Healthcare). Typical conjugation ratios were 2:1 Alexa FluorTM488: sFcεR1α • Cook J P D., Henry […]., Owens R J., Sutton B J., and Gould H J (1997) Biochemistry 36:15579-15588 The aim was to measure binding of IgE-Tb to receptor, and the inhibition thereof by compounds, using an in vitro Fluorescence Resonance Energy Transfer (FRET) Assay. Reagents FRET reagents used were IgE labelled with Terbium (FRET donor), and soluble IgE receptor FcεRIα with a Y131A mutation, labelled with Alexa FluorTM 488 (FRET acceptor). Unlabelled FcεRIα was also used to generate a background control. The assay buffer consisted of 20 mM Tris pH7.2, 150 mM NaCl, and 0.002% Tween, 1% DMSO. Assay Reaction For most of the examples the assay was conducted according to the following: Each assay reaction was conducted in a volume of 25 μl in a 384-well half-volume plate. 10 point compound serial dilutions (3-fold) were generated in DMSO at a concentration of ×50 that of the final assay concentration (FAC). Compound solutions were then prepared by IgE-Tb diluting 10-fold in assay buffer. For the assay, 5 μl of diluted compound was added to 10 μl of IgE-Tb, followed by addition of 10111 FcεRIα-Y131A-AF488. FRET reagents FACs were 5 nM IgE-Tb, 25 nM FcεRIα-Y131A-AF488. Usually the top FAC of compound in the assay was 10 μM. The final DMSO concentration was 2%. The minimum signal (MIN) was measured by adding 5 μl unlabelled FcεRIα at 1 μM (FAC=200 nM) to the FRET reagents. The maximum FRET signal (MAX) was measured in wells containing FRET reagents but no compound. The assay was incubated for 2 hours at room temperature, protected from light and evaporation, and with gentle agitation. FRET Measurement Measurement of FRET for each well was carried out by exciting at 330 nm and measuring emission at 495/520 nm using an Envision plate reader (Perkin Elmer). FRET ratio was calculated as follows: Emission at 520/Emission at 495×1000. The FRET ratio was used for the data analysis. Data Analysis Z' was calculated as follows (σ=standard deviation and μ=mean): 1-((3×σMAX)+(3×σMIN))/(μMAX-/μMIN) Z' above 0.5 was considered a good assay. Background signal (MIN) was subtracted from all wells. Using the background subtracted values, the percent inhibition by compound in each test-well was calculated as follows: 100-Test-well FRET ratio/MAX FRET ratio×100. […]

First: Cc1nnc(-c2ccc(NC3CCc4cc5cnc(C6CC6)cc5c(S(=O)(=O)NCC(C)(C)F)c4C3)cn2)o1 (centres unmarked) [Example 4, 3-cyclopropyl-N-(2-fluoro-2-methylpropyl)-7-[[6-(5-methyl-1,3,4-oxadiazol-2-yl)pyridin-3-yl]amino]-6,7,8,9-tetrahydrobenzo[g]isoquinoline-5-sulfonamide]
Second: Cc1nnc(-c2ccc(N[C@H]3CCc4cc5cnc(C6CC6)cc5c(S(=O)(=O)NCC(C)C)c4C3)cn2)o1 [Example 18, (7S)-3-cyclopropyl-7-[[6-(5-methyl-1,3,4-oxadiazol-2-yl)pyridin-3-yl]amino]-N-(2-methylpropyl)-6,7,8,9-tetrahydrobenzo[g]isoquinoline-5-sulfonamide]
The IC50 of the first is higher: 100 to 1000 nM for the first, 50 to 100 nM for the second.

`CC(C)CNS(=O)(=O)c1c2c(cc3cnc(C4CC4)cc13)CCC(n1cnnc1NCC1CC1)C2` (centres unmarked) [Example 16, 3-cyclopropyl-7-[3-(cyclopropylmethylamino)-1,2,4-triazol-4-yl]-N-(2-methylpropyl)-6,7,8,9-tetrahydrobenzo[g]isoquinoline-5-sulfonamide] and `CC(C)CNS(=O)(=O)c1c2c(cc3cnc(C4CC4)cc13)CCC(n1cnnc1Nc1cccnc1)C2` (centres unmarked) [Example 14, 3-cyclopropyl-N-(2-methylpropyl)-7-[3-(pyridin-3-ylamino)-1,2,4-triazol-4-yl]-6,7,8,9-tetrahydrobenzo[g]isoquinoline-5-sulfonamide] fall in the same range of IC50: 1 to 50 nM for the first, 1 to 50 nM for the second.

`Cc1cc(-n2cnnc2NC2CCc3cc4cnc(C5CC5)cc4c(S(=O)(=O)NCC(C)C)c3C2)n(C)n1` (centres unmarked) [Example 12, 3-cyclopropyl-7-[[4-(2,5-dimethylpyrazol-3-yl)-1,2,4-triazol-3-yl]amino]-N-(2-methylpropyl)-6,7,8,9-tetrahydrobenzo[g]isoquinoline-5-sulfonamide] and `Cc1cc(-n2ccnc2NC2CCc3cc4cnc(C5CC5)cc4c(S(=O)(=O)NCC(C)C)c3C2)n(C)n1` (centres unmarked) [Example 20, 3-cyclopropyl-74(1-(2,5-dimethylpyrazol-3-yl)imidazol-2-yl]aminol-N-(2-methylpropyl)-6,7,8,9-tetrahydrobenzo[g]isoquinoline-5-sulfonamide] fall in the same range of IC50: 100 to 1000 nM for the first, 100 to 1000 nM for the second.

`Cc1cc(Nc2nncn2C2CCc3cc4cnc(C5CC5)cc4c(S(=O)(=O)NCC(C)(C)F)c3C2)n(C)n1` (centres unmarked) [Example 2, 3-cyclopropyl-7-[3-[(2,5-dimethylpyrazol-3-yl)amino]-1,2,4-triazol-4-yl]-N-(2-fluoro-2-methylpropyl)-6,7,8,9-tetrahydrobenzo[g]isoquinoline-5-sulfonamide] and `Cc1cc(Nc2nncn2C2CCc3c(cc4cnc(C5CC5)cc4c3S(=O)(=O)NCC(C)(C)F)C2)n(C)n1` (centres unmarked) [Example 23, 3-cyclopropyl-8-[3-[(2,5-dimethylpyrazol-3-yl)amino]-1,2,4-triazol-4-yl]-N-(2-fluoro-2-methylpropyl)-6,7,8,9-tetrahydrobenzo[g]isoquinoline-5-sulfonamide] cannot be ordered by IC50: 100 to 1000 nM for the first, 100 to 2000 nM for the second.

First: Cc1cc(-n2cnnc2NC2CCc3c(cc4cnc(C5CC5)cc4c3S(=O)(=O)NCC(C)(C)F)C2)n(C)n1 (centres unmarked) [Example 24, 3-cyclopropyl-8-[[4-(2,5-dimethylpyrazol-3-yl)-1,2,4-triazol-3-yl]amino]-N-(2-fluoro-2-methyl-propyl)-6,7,8,9-tetrahydrobenzo[g]isoquinoline-5-sulfonamide formic acid]
Second: Cc1cc(Nc2nncn2C2CCc3cc4cnc(C5CC5)cc4c(S(=O)(=O)NCC(C)C)c3C2)n(C)n1 (centres unmarked) [Example 13, 3-cyclopropyl-7-[3-[(2,5-dimethylpyrazol-3-yl)amino]-1,2,4-triazol-4-yl]-N-(2-methylpropyl)-6,7,8,9-tetrahydrobenzo[g]isoquinoline-5-sulfonamide]
The IC50 of the first is higher: 100 to 2000 nM for the first, 1 to 50 nM for the second.

First: CC(C)CNS(=O)(=O)c1c2c(cc3cnc(C4CC4)cc13)CC(C(=O)NCC(C)(C)C)CC2 (centres unmarked) [Example 6, 3-cyclopropyl-N-(2,2-dimethylpropyl)-5-(2-methylpropylsulfamoyl)-6,7,8,9-tetrahydrobenzo[g]isoquinoline-8-carboxamide]
Second: CC(C)CNS(=O)(=O)c1c2c(cc3cnc(C4CC4)cc13)CCC(C(=O)NCC(C)(C)C)C2 (centres unmarked) [Example 5, 3-cyclopropyl-N-(2,2-dimethylpropyl)-5-(2-methylpropylsulfamoyl)-6,7,8,9-tetrahydrobenzo[g]isoquinoline-7-carboxamide]
The IC50 of the first is higher: 100 to 2000 nM for the first, 50 to 100 nM for the second.

`Cc1ccc2c(C(=O)NC3CCc4cc5cnc(C6CC6)cc5c(S(=O)(=O)NCC(C)C)c4C3)c[nH]c2c1` (centres unmarked) [Example 11, N-[3-cyclopropyl-5-(2-methylpropylsulfamoyl)-6,7,8,9-tetrahydrobenzo[g]isoquinolin-7-yl]-6-methyl-1H-indole-3-carboxamide] and `Cc1nnc(-c2ccc(N[C@@H]3CCc4cc5cnc(C6CC6)cc5c(S(=O)(=O)NCC(C)C)c4C3)cn2)o1` [Example 17, (7R)-3-cyclopropyl-7-[[6-(5-methyl-1,3,4-oxadiazol-2-yl)pyridin-3-yl]amino]-N-(2-methylpropyl)-6,7,8,9-tetrahydrobenzo[g]isoquinoline-5-sulfonamide] fall in the same range of IC50: 100 to 1000 nM for the first, 100 to 1000 nM for the second.

Compared with `CC(C)CNS(=O)(=O)c1c2c(cc3cnc(C4CC4)cc13)CC(C(=O)NCc1ccccc1)CC2` (centres unmarked) [Example 7, N-benzyl-3-cyclopropyl-5-(2-methylpropylsulfamoyl)-6,7,8,9-tetrahydrobenzo[g]isoquinoline-8-carboxamide], `CC(C)CNS(=O)(=O)c1c2c(cc3cnc(C4CC4)cc13)CCC(C(=O)NCc1ccccc1)C2` (centres unmarked) [Example 8, N-benzyl-3-cyclopropyl-5-(2-methylpropylsulfamoyl)-6,7,8,9-tetrahydrobenzo[g]isoquinoline-7-carboxamide] is lower in IC50: 100 to 1000 nM for the first, 1 to 50 nM for the second. The second is the more potent here.

First: CCNc1c(NC2CCc3cc4cnc(C5CC5)cc4c(S(=O)(=O)NCC(C)C)c3C2)c(=O)c1=O (centres unmarked) [Example 19, 3-cyclopropyl-7-[[2-(ethylamino)-3,4-dioxocyclobuten-1-yl]amino]-N-(2-methylpropyl)-6,7,8,9-tetrahydrobenzo[g]isoquinoline-5-sulfonamide]
Second: CC(C)CNS(=O)(=O)c1c2c(cc3cnc(C4CC4)cc13)CCC(Nc1nncn1-c1cccnc1)C2 (centres unmarked) [Example 15, 3-cyclopropyl-N-(2-methylpropyl)-7-[(4-pyridin-3-yl-1,2,4-triazol-3-yl)amino]-6,7,8,9-tetrahydrobenzo[g]isoquinoline-5-sulfonamide]
The IC50 of the first is lower: 1 to 50 nM for the first, 100 to 1000 nM for the second.

First: CC(C)CNS(=O)(=O)c1c2c(cc3cnc(C4CC4)cc13)CC(c1ncc(-c3cccnc3)[nH]1)CC2 (centres unmarked) [Example 22, 3-cyclopropyl-N-(2-methylpropyl)-8-(5-pyridin-3-yl-1H-imidazol-2-yl)-6,7,8,9-tetrahydrobenzo[g]isoquinoline-5-sulfonamide]
Second: CC(C)CNS(=O)(=O)c1c2c(cc3cnc(C4CC4)cc13)CCC(c1ncc(-c3cccnc3)[nH]1)C2 (centres unmarked) [Example 21, 3-cyclopropyl-N-(2-methylpropyl)-7-(5-pyridin-3-yl-1H-imidazol-2-yl)-6,7,8,9-tetrahydrobenzo[g]isoquinoline-5-sulfonamide]
The IC50 of the first is higher: 100 to 1000 nM for the first, 1 to 50 nM for the second.
